Measurements reported in patent publication US11040035B2, “3-oxo-2,6-diphenyl-2,3-dihydropyridazine-4-carboxamides” (BAYER PHARMA AKTIENGESELLSCHAFT, priority 2016, dated 2021).

Key:
[1] = target: T1, AHR (Homo sapiens, UniProt P35869); experiment: In vitro assay 2: agonism in human cell line (transactivation assay)
T1 sequence (P35869 11-848): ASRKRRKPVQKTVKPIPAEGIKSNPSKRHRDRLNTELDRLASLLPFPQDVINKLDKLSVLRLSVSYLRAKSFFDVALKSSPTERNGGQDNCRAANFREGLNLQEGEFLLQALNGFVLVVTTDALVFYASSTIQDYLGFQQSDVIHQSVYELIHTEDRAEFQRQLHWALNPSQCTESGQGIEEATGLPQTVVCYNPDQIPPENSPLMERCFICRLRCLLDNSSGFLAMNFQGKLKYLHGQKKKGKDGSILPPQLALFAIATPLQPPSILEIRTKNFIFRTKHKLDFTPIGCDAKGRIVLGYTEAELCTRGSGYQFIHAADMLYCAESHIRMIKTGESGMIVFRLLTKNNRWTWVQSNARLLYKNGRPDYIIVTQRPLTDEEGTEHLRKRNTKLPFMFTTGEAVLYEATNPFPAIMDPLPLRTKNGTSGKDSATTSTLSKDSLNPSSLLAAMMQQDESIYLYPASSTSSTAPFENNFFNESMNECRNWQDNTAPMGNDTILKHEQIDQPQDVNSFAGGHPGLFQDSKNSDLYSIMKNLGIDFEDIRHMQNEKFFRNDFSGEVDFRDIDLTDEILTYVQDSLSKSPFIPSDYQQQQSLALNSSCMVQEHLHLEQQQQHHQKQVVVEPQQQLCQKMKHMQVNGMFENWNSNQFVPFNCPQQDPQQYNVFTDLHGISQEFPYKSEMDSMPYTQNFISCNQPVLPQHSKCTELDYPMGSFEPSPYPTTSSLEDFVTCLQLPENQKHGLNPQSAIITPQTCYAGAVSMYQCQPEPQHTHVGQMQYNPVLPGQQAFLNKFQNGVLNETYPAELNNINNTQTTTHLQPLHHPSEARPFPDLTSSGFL
Protocol: Transactivation Assay in Human Cell Line (In Vitro Assays 1 and 2)
Transactivation assays were carried out in U87 glioblastoma cells (ATCC) endogenously expressing AHR. In addition the cells were stably transfected with an AHR inducible firefly luciferase reporter gene construct that carried AHR-binding sites (DRE) in its promoter and a renilla reporter gene construct with constitutively active promoter.
In Vitro Assay 2: Agonism in Human Cell Line
Cells in medium (tryptophan free RPMI, 1% FCS, 2 mM Glutamine) were grown for 20 hours in absence (negative control) or presence of increasing concentrations of test compounds (typical dilutions: 72 pmol/L, 0.25 nmol/L, 0.89 nmol/L; 3.1 nmol/L, 11 nmol/L, 38 nmol/L, 130 nmol/L, 470 nmol/L, 1.6 μmol/L, 5.7 μmol/L and 20 μmol/L in duplicates). As positive activation control cells were incubated with 300 μM kynurenic acid. Normalization was done by positive and negative controls.
Firefly luciferase activity was determined by the SteadyGlo Luciferase Assay System (Promega, #2520).

[2] = target: T1, AHR; experiment: In vitro assay 1: antagonism in human cell line (transactivation assay, kynurenic acid prestimulated); settings: Assay 1: AHR-luc Hum Antagonism IC50 [M], 150 μM kynurenic acid, 20 hours, firefly luciferase
[3] = Assay 2: AHR-luc Hum Agonism IC50 [M], no kynurenic acid, 20 hours, firefly luciferase
[4] = read-out: Assay 2: AHR-luc Hum Agonism IC50, no kynurenic acid, 20 hours, firefly luciferase

SMILES | IC50 [1, 3] | IC50 [2] | IC50 [1, 4]
N#Cc1cccc(-n2nc(-c3ccc(Cl)cc3)cc(C(=O)NCC(O)C(F)(F)F)c2=O)c1 (single isomer, unassigned) [Example 363, 6-(4-chlorophenyl)-2-(3-cyanophenyl)-3-oxo-N-(3,3,3-trifluoro-2-hydroxypropyl)-2,3-dihydropyridazine-4-carboxamide] | > 2e-05 M | 2.22e-07 M | 
N#Cc1cccc(-n2nc(-c3ccc(Cl)cc3)cc(C(=O)NCC(O)C(F)(F)F)c2=O)c1 (single isomer, unassigned) [Example 364, 6-(4-chlorophenyl)-2-(3-cyanophenyl)-3-oxo-N-(3,3,3-trifluoro-2-hydroxypropyl)-2,3-dihydropyridazine-4-carboxamide] |  | 5.72e-07 M | > 2e-05 M
Cc1cccc(-n2nc(-c3ccc(Cl)cc3)cc(C(=O)NCC(O)C(F)(F)F)c2=O)c1 (single isomer, unassigned) [Example 367, 6-(4-chlorophenyl)-2-(3-methylphenyl)-3-oxo-N-(3,3,3-trifluoro-2-hydroxypropyl)-2,3-dihydropyridazine 4-carboxamide] | > 2e-05 M | 5e-07 M | 
Cc1cccc(-n2nc(-c3ccc(Cl)cc3)cc(C(=O)NCC(O)C(F)(F)F)c2=O)c1 (single isomer, unassigned) [Example 368, 6-(4-chlorophenyl)-2-(3-methylphenyl)-3-oxo-N-(3,3,3-trifluoro-2-hydroxypropyl)-2,3-dihydropyridazine-4-carboxamide] |  | 1.86e-06 M | > 2e-05 M
O=C(N[C@H]1COC[C@H]1O)c1cc(-c2ccc(Cl)cc2)nn(-c2cccc(F)c2)c1=O (single isomer, unassigned) [Example 384, 6-(4-chlorophenyl)-2-(3-fluorophenyl)-N-[cis-4-hydroxytetrahydrofuran-3-yl]-3-oxo-2,3-dihydropyridazine-4-carboxamide] | > 2e-05 M | 2.4e-08 M | 
O=C(N[C@H]1COC[C@H]1O)c1cc(-c2ccc(Cl)cc2)nn(-c2cccc(F)c2)c1=O (single isomer, unassigned) [Example 385, 6-(4-chlorophenyl)-2-(3-fluorophenyl)-N-[cis-4-hydroxytetrahydrofuran-3-yl]-3-oxo-2,3-dihydropyridazine-4-carboxamide] |  | 8.8e-08 M | > 2e-05 M
O=C(NCC(O)C(F)(F)F)c1cc(-c2ccc(Cl)c(F)c2)nn(-c2cc(F)cc(F)c2)c1=O (single isomer, unassigned) [Example 404, 6-(4-chloro-3-fluorophenyl)-2-(3,5-difluorophenyl)-3-oxo-N-(3,3,3-trifluoro-2-hydroxypropyl)-2,3-dihydropyridazine-4-carboxamide] | > 2e-05 M | 2.7e-07 M | 
O=C(NCC(O)C1CC1)c1cc(-c2ccc(Cl)cc2)nn(-c2cccc(F)c2)c1=O (single isomer, unassigned; (+)) [Example 192, (+)-6-(4-Chlorophenyl)-N-(2-cyclopropyl-2-hydroxyethyl)-2-(3-fluorophenyl)-3-oxo-2,3-dihydropyridazine-4-carboxamide] |  | 1.97e-07 M | > 2e-05 M
O=C(NC(CO)C1CC1)c1cc(-c2ccc(Cl)cc2)nn(-c2cccc(F)c2)c1=O (single isomer, unassigned; (+)) [Example 195, (+)-6-(4-Chlorophenyl)-N-(1-cyclopropyl-2-hydroxyethyl)-2-(3-fluorophenyl)-3-oxo-2,3-dihydropyridazine-4-carboxamide] |  | 2.5e-07 M | > 2e-05 M
CC(CO)CNC(=O)c1cc(-c2ccc(Cl)cc2)nn(-c2cccc(F)c2)c1=O (single isomer, unassigned; (+)) [Example 201, (+)-6-(4-Chlorophenyl)-2-(3-fluorophenyl)-N-(3-hydroxy-2-methylpropyl)-3-oxo-2,3-dihydropyridazine-4-carboxamide] | > 2e-05 M | 8.64e-08 M | 
CC(CCO)NC(=O)c1cc(-c2ccc(Cl)cc2)nn(-c2cccc(F)c2)c1=O (single isomer, unassigned; (+)) [Example 207, (+)-6-(4-Chlorophenyl)-2-(3-fluorophenyl)-N-(4-hydroxybutan-2-yl)-3-oxo-2,3-dihydropyridazine-4-carboxamide] | > 2e-05 M | 6.29e-08 M | 
O=C(NC(CO)C1CCC1)c1cc(-c2ccc(Cl)cc2)nn(-c2cccc(F)c2)c1=O (single isomer, unassigned; (+)) [Example 210, (+)-6-(4-Chlorophenyl)-N-(1-cyclobutyl-2-hydroxyethyl)-2-(3-fluorophenyl)-3-oxo-2,3-dihydropyridazine-4-carboxamide] | > 2e-05 M | 4.12e-07 M | 
O=C(NCC(O)C(F)F)c1cc(-c2ccc(Cl)cc2)nn(-c2cccc(F)c2)c1=O (single isomer, unassigned; (+)) [Example 223, (+)-6-(4-Chlorophenyl)-N-(3,3-difluoro-2-hydroxypropyl)-2-(3-fluorophenyl)-3-oxo-2,3-dihydropyridazine-4-carboxamide] |  | 1.28e-07 M | > 2e-05 M
O=C(NC(CO)CCO)c1cc(-c2ccc(Cl)cc2)nn(-c2cccc(F)c2)c1=O (single isomer, unassigned; (+)) [Example 225, (+)-6-(4-Chlorophenyl)-N-(1,4-dihydroxybutan-2-yl)-2-(3-fluorophenyl)-3-oxo-2,3-dihydropyridazine-4-carboxamide] | > 2e-05 M | 2.41e-07 M | 
O=C(NCC(O)C(F)(F)F)c1cc(-c2ccc(C(F)(F)F)cc2)nn(-c2cccc(F)c2)c1=O (single isomer, unassigned; (+)) [Example 244] |  | 3.17e-08 M | > 2e-05 M
O=C(NC(CCO)C(F)(F)F)c1cc(-c2ccc(Cl)cc2)nn(-c2cccc(F)c2)c1=O (single isomer, unassigned; (+)) [Example 343, (+)-6-(4-chlorophenyl)-2-(3-fluorophenyl)-3-oxo-N-(1,1,1-trifluoro-4-hydroxybutan-2-yl)-2,3-dihydropyridazine-4-carboxamide] |  | 1.49e-08 M | > 2e-05 M
O=C(NC(CO)C1CC1)c1cc(-c2ccc(C(F)(F)F)cc2)nn(-c2cccc(F)c2)c1=O (single isomer, unassigned; (+)) [Example 352, (+)-N-(1-cyclopropyl-2-hydroxyethyl)-2-(3-fluorophenyl)-3-oxo-6-[4-(trifluoromethyl)phenyl]-2,3-dihydropyridazine-4-carboxamide] |  | 1e-07 M | > 2e-05 M
O=C(NC(CO)C(F)(F)F)c1cc(-c2ccc(Cl)cc2)nn(-c2cccc(F)c2)c1=O (single isomer, unassigned; (-)) [Example 98, (−)-6-(4-Chlorophenyl)-2-(3-fluorophenyl)-3-oxo-N-(1,1,1-trifluoro-3-hydroxypropan-2-yl)-2,3-dihydropyridazine-4-carboxamide] | > 2e-05 M | > 2e-05 M | 
O=C(NCC(O)C1CC1)c1cc(-c2ccc(Cl)cc2)nn(-c2cccc(F)c2)c1=O (single isomer, unassigned; (-)) [Example 191, (−)-6-(4-Chlorophenyl)-N-(2-cyclopropyl-2-hydroxyethyl)-2-(3-fluorophenyl)-3-oxo-2,3-dihydropyridazine-4-carboxamide] | > 2e-05 M | 1.1e-07 M | 
O=C(NC(CO)C1CC1)c1cc(-c2ccc(Cl)cc2)nn(-c2cccc(F)c2)c1=O (single isomer, unassigned; (-)) [Example 194, (−)-6-(4-Chlorophenyl)-N-(1-cyclopropyl-2-hydroxyethyl)-2-(3-fluorophenyl)-3-oxo-2,3-dihydropyridazine-4-carboxamide] | > 2e-05 M | 1.21e-08 M | 
CC(CO)CNC(=O)c1cc(-c2ccc(Cl)cc2)nn(-c2cccc(F)c2)c1=O (single isomer, unassigned; (-)) [Example 202, (−)-6-(4-Chlorophenyl)-2-(3-fluorophenyl)-N-(3-hydroxy-2-methylpropyl)-3-oxo-2,3-dihydropyridazine-4-carboxamide] |  | 1.02e-07 M | > 2e-05 M
CC(CCO)NC(=O)c1cc(-c2ccc(Cl)cc2)nn(-c2cccc(F)c2)c1=O (single isomer, unassigned; (-)) [Example 208, (−)-6-(4-Chlorophenyl)-2-(3-fluorophenyl)-N-(4-hydroxybutan-2-yl)-3-oxo-2,3-dihydropyridazine-4-carboxamide] |  | 2e-07 M | > 2e-05 M
O=C(NC(CO)CCO)c1cc(-c2ccc(Cl)cc2)nn(-c2cccc(F)c2)c1=O (single isomer, unassigned; (-)) [Example 226, (−)-6-(4-Chlorophenyl)-N-(1,4-dihydroxybutan-2-yl)-2-(3-fluorophenyl)-3-oxo-2,3-dihydropyridazine-4-carboxamide] |  | 1.42e-07 M | > 2e-05 M
